In the experiment the target is T1, Subtilisin Carlsberg (Bacillus licheniformis) (UniProt P00780).
T1 sequence (whole entry): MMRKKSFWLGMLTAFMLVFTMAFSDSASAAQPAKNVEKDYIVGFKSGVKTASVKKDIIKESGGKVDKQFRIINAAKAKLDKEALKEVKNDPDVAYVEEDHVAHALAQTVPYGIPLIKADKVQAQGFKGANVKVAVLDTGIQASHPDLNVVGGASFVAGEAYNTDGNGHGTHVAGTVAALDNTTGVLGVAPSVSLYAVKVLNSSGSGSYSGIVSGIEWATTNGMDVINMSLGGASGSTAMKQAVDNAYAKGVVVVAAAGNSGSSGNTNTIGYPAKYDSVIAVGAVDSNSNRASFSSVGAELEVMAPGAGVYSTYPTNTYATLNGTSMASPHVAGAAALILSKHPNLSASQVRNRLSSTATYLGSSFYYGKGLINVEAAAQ
Kind of experiment: Inhibition of Bacillus licheniformis subtilisin using Suc-Ala-Ala-Pro-Phe-AMC as substrate by spectrofluorometry.

`CC(C)[C@H](NC(=O)OC(C)(C)C)C(=O)N1CCC[C@H]1C(=O)N[C@H](Cc1ccccc1)P(=O)(Oc1ccc(CS)cc1)Oc1ccc(CS)cc1` showed a Kapp of 1 ×10⁵ /M/s.

(Values after ChEMBL document CHEMBL3769401, “The first potent diphenyl phosphonate KLK4 inhibitors with unexpected binding kinetics” (Medchemcomm, 2015).)
